Where a name gives a salt, the structure may show the parent alone. Read-outs that look alike come from different tables or passages of the source.
Assays:
[1] = biological target: T1, full-length human HuR protein (Homo sapiens, UniProt Q15717); assay: FP assay of HuR-Msi1 ARE binding inhibition; settings: HuR-Msi1 ARE interaction; read-out: HuR Ki via FP assay
T1 construct: full-length human HuR protein was produced by the KU COBRE-PSF Protein Purification Group; made in house
Text: A fluorescence polarization (FP)-based binding assay was utilized to assess the inhibition of HuR protein interaction with the ARE site of Msi1 mRNA (“HuR-Msi1^ARE”) by compounds of interest. Briefly, full-length human HuR protein was produced by the KU COBRE-PSF Protein Purification Group and Bcl2, Msi1 and XIAP mRNA sequences (16 nt) were designed based on literature precedent^23,24,31,32. Fluorescein labeled RNAs were purchased from Dharmacon with the following sequences: Msi1 RNA: 5′-[…]-3′-fluorescein; Bcl-2 RNA: 5′-[…]-3′-fluorescein; XIAP RNA: 5′-[…] UGUC-3′-fluorescein, and a 16-nt degenerative RNA with 3′-fluorescein label was used as a negative control.
(§1) With the FP assay of HuR-Msi1ARE binding, the inhibition of the HuR-Msi1ARE interaction by various compounds of the present technology was assessed. Similar FP assays for Musashi 2 (Msi2) and for RNA-binding protein Lin-28 homolog B (LIN28B) were also performed on various compounds of the present technology. The results of such assays for HuR are provided in Table 1 alongside the compound structures as well as ID numbers for ease of reference; the results of such assays for Msi1, Msi2, and LIN28B are provided in Table 2.

[2] = test system: triple-negative breast cancer cell line MDA-MB-231; assay: Cytotoxicity assay (WST-8), MDA-MB-231; assay type: cell-based; settings: Homo sapiens, 96 h incubation
Experimental: The cytotoxicity of various compounds of the present technology in several cancer cell lines (pancreatic cancer cell line MIAPaCa-2, triple-negative breast cancer cell line MDA-MB-231, and colon cancer cell lines HCT116, HCT116 β/W, and RKO) was assessed by a cytotoxicity assay. Cells were seeded in 96-well culture plates (3,000-5,000 cells/well) and treated with titrated compounds in triplicate. After 96 h incubation, cell growth medium was removed and proliferation reagent WST-8 (Sigma) was added to each well and incubated at 37° C. for 1-3 h. Absorbance was then measured with a plate reader at 450 nm with correction at 650 nm. The results were expressed as the percentage of absorbance of treated wells versus that of vehicle control. IC50, the drug concentration causing 50% growth inhibition, was calculated via sigmoid curve fitting using GraphPad Prism 5.0. The results for those compounds tested against MIAPaCa-2 and MDA-MB-231 are provided in Table 1; the results for those compounds tested against colon cancer cell lines HCT116, HCT116 β/W, and RKO are provided in Table 3.

[3] = biological target: Msi1 (Homo sapiens, UniProt O43347); assay: Msi1 FP assay; assay type: binding
Chain of Msi1 (O43347 whole entry, species assumed): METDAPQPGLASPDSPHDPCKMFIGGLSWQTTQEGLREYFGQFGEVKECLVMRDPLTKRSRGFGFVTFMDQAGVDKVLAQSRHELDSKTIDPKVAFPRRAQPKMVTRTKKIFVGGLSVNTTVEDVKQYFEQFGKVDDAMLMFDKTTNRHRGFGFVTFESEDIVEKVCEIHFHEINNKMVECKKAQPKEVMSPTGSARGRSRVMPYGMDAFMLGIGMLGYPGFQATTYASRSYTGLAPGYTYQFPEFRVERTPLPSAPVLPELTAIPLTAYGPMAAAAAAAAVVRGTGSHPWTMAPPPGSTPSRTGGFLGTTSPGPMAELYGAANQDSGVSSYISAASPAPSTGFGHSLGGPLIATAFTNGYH
Experimental: as §1

[4] = biological target: Musashi 2 (Msi2) (Homo sapiens, UniProt Q96DH6); assay: Msi2 FP assay; assay type: binding
Chain of Musashi 2 (Msi2) (Q96DH6 whole entry, species assumed): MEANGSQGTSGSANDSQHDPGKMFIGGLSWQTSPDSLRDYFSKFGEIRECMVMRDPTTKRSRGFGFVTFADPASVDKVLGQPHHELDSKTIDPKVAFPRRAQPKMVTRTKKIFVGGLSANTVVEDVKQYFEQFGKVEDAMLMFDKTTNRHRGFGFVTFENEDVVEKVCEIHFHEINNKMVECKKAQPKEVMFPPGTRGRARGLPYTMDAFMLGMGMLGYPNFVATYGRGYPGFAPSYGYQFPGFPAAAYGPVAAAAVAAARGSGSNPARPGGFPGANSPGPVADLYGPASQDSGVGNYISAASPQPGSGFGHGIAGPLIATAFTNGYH
Experimental: as §1

[5] = biological target: T2, RNA-binding protein Lin-28 homolog B (LIN28B) (Homo sapiens, UniProt Q6ZN17); assay: LIN28B FP assay
T2 sequence (Q6ZN17 1-250): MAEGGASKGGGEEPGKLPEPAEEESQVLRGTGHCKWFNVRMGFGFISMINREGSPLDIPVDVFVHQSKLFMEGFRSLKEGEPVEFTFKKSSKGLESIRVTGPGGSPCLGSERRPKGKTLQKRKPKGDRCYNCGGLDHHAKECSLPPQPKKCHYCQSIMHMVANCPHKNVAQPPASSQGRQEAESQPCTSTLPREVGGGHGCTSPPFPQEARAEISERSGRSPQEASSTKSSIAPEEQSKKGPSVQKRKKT
Experimental: as §1

[6] = cell without (RRM1) mark, read-out: Msi2 (Ki)
[7] = cell marked (RRM1), read-out: Msi2 (Ki) (RRM1)

T1 sequence (Q15717 whole entry): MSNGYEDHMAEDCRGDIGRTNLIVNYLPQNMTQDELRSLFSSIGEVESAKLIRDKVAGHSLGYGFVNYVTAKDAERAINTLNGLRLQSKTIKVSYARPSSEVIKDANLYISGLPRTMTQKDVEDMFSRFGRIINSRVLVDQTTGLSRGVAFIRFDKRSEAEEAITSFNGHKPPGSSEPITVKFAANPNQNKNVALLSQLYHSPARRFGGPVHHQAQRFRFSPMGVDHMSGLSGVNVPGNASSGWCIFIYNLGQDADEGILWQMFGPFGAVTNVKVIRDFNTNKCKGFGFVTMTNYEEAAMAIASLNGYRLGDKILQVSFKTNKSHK

| Structure (SMILES) | Ki [1] [µM] | IC50 [2] [µM] | Ki [3] [µM] | Ki [4, 6] [µM] | Ki [5] [µM] | Ki [4, 7] [µM] |
| --- | --- | --- | --- | --- | --- | --- |
| CC(C)(C)c1cccc(C(=O)Nc2ccc3sc(CCC(=O)NO)cc3c2)c1 [KH-30, 3-(tert-Butyl)-N-(2-(3-(hydroxyamino)-3-oxopropyl)benzo[b]thiophen-5-yl)benzamide] | 4.98 | 5.51 | > 20 | > 20 | > 20 | – |
| O=C(CCc1cc2cc(NC(=O)c3ccc(C(F)(F)F)cc3)ccc2s1)NO [KH-29, N-(2-(3-(hydroxyamino)-3-oxopropyl)benzo[b]thiophen-5-yl)-4-(trifluoromethyl)benzamide] | 2.51 | 12.4 | > 20 | > 20 | > 20 | – |
| CC(C)(C)c1ccc(C(=O)Nc2ccc3sc(CCC(=O)NO)cc3c2)cc1 [KH-22, 4-(tert-Butyl)-N-(2-(3-(hydroxyamino)-3-oxopropyl)benzo[b]thiophen-5-yl)benzamide] | 0.83 | 3.48 | > 20 | > 20 | > 20 | – |
| CN(C)c1ccc(C(=O)Nc2ccc3[nH]c(C(=O)O)cc3c2)cc1 [KH-57A, 5-(4-(dimethylamino)benzamido)-1H-indole-2-carboxylic acid] | 0.78 | 100 | – | – | > 20 | 2.1 |
| CN(C)c1ccc(C(=O)Nc2ccc3[nH]c(/C=C/C(=O)O)cc3c2)cc1 [KH-52A, (E)-3-(5-(4-(dimethylamino)benzamido)-1H-indol-2-yl)acrylic acid] | 7.76 | > 100 | – | – | > 20 | 27.1 |
| CC(C)c1ccc(C(=O)Nc2ccc3sc(CCC(=O)NN)cc3c2)cc1 [KH-37E] | 5.18 | > 100 | > 20 | > 20 | > 20 | – |
| CC(C)(C)c1ccc(C(=O)Nc2ccc3sc(CCC(N)=O)cc3c2)cc1 [KH-22C, N-(2-(3-amino-3-oxopropyl)benzo[b]thiophen-5-yl)-4-(tert-butyl)benzamide] | 7 | 2.87 | > 20 | > 20 | > 20 | – |
| O=C(O)CCc1cc2cc(NC(=O)c3ccc(F)cc3)ccc2s1 [KH-28A, 3-(5-(4-Fluorobenzamido)benzo[b]thiophen-2-yl)propanoic acid] | > 20 | – | > 20 | > 20 | > 20 | – |
| CN(C)c1ccc(C(=O)Nc2ccc3sc(CCC(=O)NN)cc3c2)cc1 [KH-38E] | 3.56 | 57.6 | > 20 | > 20 | > 20 | – |
| O=C(O)CCc1cc2cc(NC(=O)c3ccc(S(F)(F)(F)(F)F)cc3)ccc2s1 [KH-34A, 3-(5-(4-(pentafluoro-λ^6-sulfanyl)benzamido)benzo[b]thiophen-2-yl)propanoic acid] | 5.8 | 48 | > 20 | > 20 | > 20 | – |
| O=C(Nc1ccc2sc(C(=O)O)cc2c1)c1ccccn1 [KH-60A, 5-(Picolinamido)benzo[b]thiophene-2-carboxylic acid hydrochloride] | 1.14 | > 100 | – | – | > 20 | 4.6 |
| CC(C)(C)c1cccc(C(=O)Nc2ccc3sc(/C=C/C(=O)NO)cc3c2)c1 [KH-31, (E)-3-(tert-Butyl)-N-(2-(3-(hydroxyamino)-3-oxoprop-1-en-1-yl)benzo[b]thiophen-5-yl)benzamide] | 0.47 | 9.74 | 3.89 | – | 3 | 1.3 |
| CN(C)c1ccc(C(=O)Nc2ccc3[nH]c(/C=C/C(=O)NO)cc3c2)cc1 [KH-52, (E)-4-(dimethylamino)-N-(2-(3-(hydroxyamino)-3-oxoprop-1-en-1-yl)-1H-indol-5-yl)benzamide] | 0.69 | 8.91 | – | > 20 | > 20 | – |
| O=C(/C=C/c1cc2cc(NC(=O)c3ccccn3)ccc2s1)NO [KH-47, (E)-N-(2-(3-(hydroxyamino)-3-oxoprop-1-en-1-yl)benzo[b]thiophen-5-yl) picolinamide hydrochloride] | 4.44 | 3.11 | – | > 20 | > 20 | – |
| CC(C)(C)c1ccc(C(=O)Nc2ccc3[nH]c(/C=C/C(=O)NO)cc3c2)cc1 [KH-48, (E)-4-(tert-butyl)-N-(2-(3-(hydroxyamino)-3-oxoprop-1-en-1-yl)-1H-indol-5-yl)benzamide] | 0.34 | 2.24 | – | – | 8.79 | 3.91 |
| CC(C)(C)c1ccc(C(=O)Nc2ccc3sc(C(=O)NO)cc3c2)cc1 [KH-43, 5-(4-(tert-butyl)benzamido)-N-hydroxybenzo[b]thiophene-2-carboxamide] | 0.44 | 3.71 | – | – | 2.7 | 2.9 |
| O=C(O)/C=C/c1cc2cc(NC(=O)c3ccc(F)cc3)ccc2s1 [KH-23A, (E)-3-(5-(4-Fluorobenzamido)benzo[b]thiophen-2-yl)acrylic acid] | > 20 | – | > 20 | > 20 | > 20 | – |
| CN(C)c1ccc(C(=O)Nc2ccc3[nH]c(C(=O)NO)cc3c2)cc1 [KH-57, 5-(4-(dimethylamino)benzamido)-N-hydroxy-1H-indole-2-carboxamide] | 3.31 | 11.3 | – | > 20 | > 20 | – |
| CN(C)c1ccc(C(=O)Nc2ccc3sc(C(=O)O)cc3c2)cc1 [KH-58A, 5-(4-(Dimethylamino)benzamido)benzo[b]thiophene-2-carboxylic acid] | 2.37 | > 100 | – | – | > 20 | 6.6 |
| O=C(O)/C=C/c1cc2cc(NC(=O)c3ccccn3)ccc2s1 [KH-47A, (E)-3-(5-(picolinamido)benzo[b]thiophen-2-yl)acrylic acid hydrochloride] | 1.81 | 18.2 | – | – | > 20 | 6.8 |
| O=C(Nc1ccc2sc(C(=O)NO)cc2c1)c1ccccn1 [KH-60, N-(2-(hydroxycarbamoyl)benzo[b]thiophen-5-yl)picolinamide] | 3.23 | 4.43 | – | > 20 | > 20 | – |
| CC(C)(C)c1ccc(C(=O)Nc2ccc3[nH]c(C(=O)NN)cc3c2)cc1 [KH-39E, 4-(tert-butyl)-N-(2-(hydrazinecarbonyl)-1H-indol-5-yl)benzamide] | 1.67 | 13.5 | – | – | > 20 | – |
| O=C(Nc1ccc2[nH]c(C(=O)O)cc2c1)c1ccccn1 [KH-56A, 5-(picolinamido)-1H-indole-2-carboxylic acid hydrochloride] | > 20 | > 100 | – | > 20 | > 20 | – |
| CC(C)(C)c1ccc(C(=O)Nc2ccc3[nH]c(/C=C/C(=O)O)cc3c2)cc1 [KH-48A, (E)-3-(5-(4-(tert-butyl)benzamido)-1H-indol-2-yl)acrylic acid] | 3.35 | > 100 | – | – | > 20 | 4.8 |
| O=C(O)/C=C/c1cc2cc(NC(=O)C3CCCCC3)ccc2s1 [KH-46A, (E)-3-(5-(cyclohexanecarboxamido)benzo[b]thiophen-2-yl)acrylic acid] | 4.27 | > 100 | – | > 20 | > 20 | – |
| CC(C)(C)c1ccc(C(=O)Nc2ccc3sc(C(=O)O)cc3c2)cc1 [KH-43A, 5-(4-(tert-butyl)benzamido)benzo[b]thiophene-2-carboxylic acid] | 5.08 | 90.5 | – | – | > 20 | 5.25 |
| O=C(/C=C/c1cc2cc(NC(=O)C3CCCCC3)ccc2s1)NO [KH-46, (E)-N-(2-(3-(hydroxyamino)-3-oxoprop-1-en-1-yl)benzo[b]thiophen-5-yl) cyclohexanecarboxamide] | 1.29 | 3.5 | – | > 20 | 5.84 | – |
